Measured values reported in patent US20040039053A1, “Use of(-) (3-halomethylphenoxy) (4-halophenyl) acetic acid derivatives for treatment of insulin resistance, type 2 diabetes, hyperlipidemia and hyperuricemia” (priority 2000, published 2004).
Each block holds one compound with its values, some of them ahead of it.

Columns and labels:
[1] = Plasma hydrolysis of (−) CPTA prodrug esters in human plasma (Example 21); format: in vitro ADME; details: human plasma (heparinized, pooled), 125 or 250 μM, 37° C., hydrolysis to (−) CPTA; read-out: Plasma T1/2 (converted)
Description: This example illustrates the plasma hydrolysis of various prodrug esters of the (S)-enantiomer of CPTA at physiological conditions. Hydrolysis was monitored and analyzed by HPLC. The hydrolytic product was identified by comparison to authentic (−) CPTA and the hydrolytic rates were calculated. [drawing 83]
Human plasma (heparinized, pooled) was obtained from Golden West Biololgicals Inc., USA; Plasma incubation was carried out in a Water Bath Shaker (New Brunswick Scientific, Inc.); Sample analyses were carried out on Agilent HPLC 1100 system.
Prepare 31.25 or 62.5 mM prodrug stock solutions in 100% DMSO. Add 4 μL of 31.25 or 62.5 mM prodrug stock solutions to 1.0 mL of plasma in a microcentrifuge tube to make plasma concentration at 125 or 250 μM, mix gently. Aliquots of 50 μL are transferred to 15 microcentrifuge vials. Three samples are immediately removed to a freezer at about −80° C. (0 time point), the remaining samples are incubated in a bath shaker at 37° C. Three samples are removed at 30 min, 2, 7 and 24 hr, and stored at −80° C. until analysis. The relative concentrations of MBX-compounds are determined by HPLC methods. If there are enough data points, the hydrolytic rate can be calculated using WinNonlin software. Table 10 provides a summary of plasma half-lives of some pro-drug esters and FIGS. 20A-20G illustrate the hydrolytic curves of those prodrug esters.

[2] = system: C57BL/6J ob/ob mice; experiment: Glucose lowering activity of halofenate analogs in ob/ob mice (Example 12); format: in vivo; details: for Predose Glucose: baseline before dosing

- half-life [1]: < 60 min
Compound: CC(=O)OCCOC(=O)C(Oc1cccc(C(F)(F)F)c1)c1ccc(Cl)cc1 (single isomer, unassigned) [Compound 19.23]

- half-life [1]: < 60 min
Compound: CCNC(=O)NCCOC(=O)C(Oc1cccc(C(F)(F)F)c1)c1ccc(Cl)cc1 (single isomer, unassigned) [Compound 19.22]

Compound: NC(=O)COC(=O)C(Oc1cccc(C(F)(F)F)c1)c1ccc(Cl)cc1 (single isomer, unassigned; (-)) [(−)Analog 37]
- Predose Glucose ([2]; 150 mg/kg group): 373.4 ± 16.1 mg/dL
- 6 hours Glucose ([2]; single oral dose 150 mg/kg): 271.7 ± 22.5 mg/dL
- time points with significantly reduced plasma glucose ([2]; single oral dose 150 mg/kg): 6 h

Compound: CCCCOC(=O)C(Oc1cccc(C(F)(F)F)c1)c1ccc(Cl)cc1 (racemic) [(±)Analog 33]
- 6 hours Glucose ([2]; 125 mg/kg oral once a day): 227.5 ± 13.2 mg/dL
- 30 hours Glucose ([2]; 125 mg/kg oral once a day): 298.0 ± 15.3 mg/dL
- 54 hours Glucose ([2]; 125 mg/kg oral once a day): 286.6 ± 9.9 mg/dL
- Predose Glucose ([2]; 125 mg/kg group): 292.0 ± 19.1 mg/dL

- half-life [1]: < 60 min
Compound: CCOC(=O)NCCOC(=O)C(Oc1cccc(C(F)(F)F)c1)c1ccc(Cl)cc1 (single isomer, unassigned; (-)) [Compound 19.9, (−)-2-ethoxycarbonylaminoethyl 4-chloro-alpha-(3-trifluoromethylphenoxy)benzeneacetate]

Compound: CN(C)C(=O)COC(=O)C(Oc1cccc(C(F)(F)F)c1)c1ccc(Cl)cc1 (single isomer, unassigned) [Compound 19.11]
- half-life [1]: < 30 min

- half-life [1]: < 120 min
Compound: O=C(NCCOC(=O)C(Oc1cccc(C(F)(F)F)c1)c1ccc(Cl)cc1)OCc1ccccc1 (single isomer, unassigned) [Compound 19.21]

- half-life [1]: < 30 min
Compound: O=C(OCC(=O)N1CCOCC1)C(Oc1cccc(C(F)(F)F)c1)c1ccc(Cl)cc1 (single isomer, unassigned) [Compound 19.5]

- half-life [1]: < 30 min
Compound: O=C(NCCOC(=O)C(Oc1cccc(C(F)(F)F)c1)c1ccc(Cl)cc1)c1cccnc1 (single isomer, unassigned) [Compound 19.20]

Compound: O=C(NCCOC(=O)C(Oc1cccc(C(F)(F)F)c1)c1ccc(Cl)cc1)c1ccccc1 (racemic) [(±)Analog 36]
- 6 hours Glucose ([2]; 125 mg/kg oral once a day): 300.5 ± 27.3 mg/dL
- 30 hours Glucose ([2]; 125 mg/kg oral once a day): 249.7 ± 8.6 mg/dL
- 54 hours Glucose ([2]; 125 mg/kg oral once a day): 272.2 ± 18.4 mg/dL
- Predose Glucose ([2]; 125 mg/kg group): 329.7 ± 17.6 mg/dL

- half-life [1]: < 30 min
Compound: NCC(=O)OCCOC(=O)C(Oc1cccc(C(F)(F)F)c1)c1ccc(Cl)cc1 (single isomer, unassigned) [Compound 19.28]

- half-life [1]: < 60 min
Compound: CC(C)C(=O)NCCOC(=O)C(Oc1cccc(C(F)(F)F)c1)c1ccc(Cl)cc1 (single isomer, unassigned) [Compound 19.15]

- half-life [1]: < 30 min
Compound: CCOC(=O)COC(=O)C(Oc1cccc(C(F)(F)F)c1)c1ccc(Cl)cc1 (single isomer, unassigned) [Compound 19.12]

Compound: CN(C)C(=O)COC(=O)C(Oc1cccc(C(F)(F)F)c1)c1ccc(Cl)cc1 (single isomer, unassigned; (-)) [(−)Analog 38]
- Predose Glucose ([2]; 150 mg/kg group): 373.4 ± 16.1 mg/dL
- 6 hours Glucose ([2]; single oral dose 150 mg/kg): 251.2 ± 23.6 mg/dL
- time points with significantly reduced plasma glucose ([2]; single oral dose 150 mg/kg): 6 h

- half-life [1]: < 30 min
Compound: NC(=O)C1CCCN1C(=O)COC(=O)C(Oc1cccc(C(F)(F)F)c1)c1ccc(Cl)cc1 (single isomer, unassigned) [Compound 19.16]

Compound: CC(=O)NCCOC(=O)C(Oc1cccc(C(F)(F)F)c1)c1ccc(F)cc1 (racemic) [(±)Analog 14]
- 6 hours Glucose ([2]; 125 mg/kg oral once a day): 328.9 ± 34.1 mg/dL
- 30 hours Glucose ([2]; 125 mg/kg oral once a day): 267.0 ± 21.3 mg/dL
- 54 hours Glucose ([2]; 125 mg/kg oral once a day): 293.0 ± 29.4 mg/dL
- Predose Glucose ([2]; 125 mg/kg group): 361.0 ± 17.1 mg/dL

- half-life [1]: < 60 min
Compound: COCC(=O)NCCOC(=O)C(Oc1cccc(C(F)(F)F)c1)c1ccc(Cl)cc1 (single isomer, unassigned) [Compound 19.17]

Compound: CN(C)C(=O)COC(=O)C(Oc1cccc(C(F)(F)F)c1)c1ccc(Cl)cc1 (racemic) [(±)Analog 38]
- 6 hours Glucose ([2]; 125 mg/kg oral once a day): 303.2 ± 18.2 mg/dL
- 30 hours Glucose ([2]; 125 mg/kg oral once a day): 245.6 ± 15.6 mg/dL
- 54 hours Glucose ([2]; 125 mg/kg oral once a day): 243.1 ± 10.6 mg/dL
- Predose Glucose ([2]; 125 mg/kg group): 329.4 ± 18.9 mg/dL

- half-life [1]: 378 min
Compound: O=C(OCc1ccccc1)C(Oc1cccc(C(F)(F)F)c1)c1ccc(Cl)cc1 (single isomer, unassigned; (-)) [Compound 19.6, (−)-benzyl 4-chloro-alpha-(3-trifluoromethylphenoxy)benzeneacetate]

Compound: NC(=O)COC(=O)C(Oc1cccc(C(F)(F)F)c1)c1ccc(Cl)cc1 (racemic) [(±)Analog 37]
- 6 hours Glucose ([2]; 125 mg/kg oral once a day): 345.4 ± 19.7 mg/dL
- 30 hours Glucose ([2]; 125 mg/kg oral once a day): 312.5 ± 21.7 mg/dL
- 54 hours Glucose ([2]; 125 mg/kg oral once a day): 285.1 ± 14.7 mg/dL
- time points with significantly lowered plasma glucose ([2]; 125 mg/kg oral once a day): 54 h
- Predose Glucose ([2]; 125 mg/kg group): 387.4 ± 18.8 mg/dL

Compound: CC(=O)NCCOC(=O)C(Oc1cccc(C(F)(F)F)c1)c1ccc(Br)cc1 (racemic) [(±)Analog 29]
- 6 hours Glucose ([2]; 125 mg/kg oral once a day): 299.7 ± 24.5 mg/dL
- 30 hours Glucose ([2]; 125 mg/kg oral once a day): 237.4 ± 14.9 mg/dL
- 54 hours Glucose ([2]; 125 mg/kg oral once a day): 293.3 ± 9.7 mg/dL
- Predose Glucose ([2]; 125 mg/kg group): 387.1 ± 16.0 mg/dL

- half-life [1]: < 30 min
Compound: O=C(OCC(=O)N1CCC1)C(Oc1cccc(C(F)(F)F)c1)c1ccc(Cl)cc1 (single isomer, unassigned) [Compound 19.13]

- half-life [1]: < 30 min
Compound: COC(=O)C1CCCN1C(=O)COC(=O)C(Oc1cccc(C(F)(F)F)c1)c1ccc(Cl)cc1 (single isomer, unassigned) [Compound 19.19]

- half-life [1]: < 30 min
Compound: Cc1oc(=O)oc1COC(=O)C(Oc1cccc(C(F)(F)F)c1)c1ccc(Cl)cc1 (single isomer, unassigned) [Compound 19.24]

Compound: O=C(NCCOC(=O)C(Oc1cccc(C(F)(F)F)c1)c1ccc(Cl)cc1)c1ccccc1 (single isomer, unassigned) [Compound 19.4]
- half-life [1]: < 60 min

- half-life [1]: 330 min
Compound: C=CCOC(=O)C(Oc1cccc(C(F)(F)F)c1)c1ccc(Cl)cc1 (single isomer, unassigned) [Compound 19.1]

- half-life [1]: < 30 min
Compound: O=C(Oc1ccccc1)C(Oc1cccc(C(F)(F)F)c1)c1ccc(Cl)cc1 (single isomer, unassigned) [Compound 19.25]

- half-life [1]: < 60 min
Compound: C#CCOC(=O)C(Oc1cccc(C(F)(F)F)c1)c1ccc(Cl)cc1 (single isomer, unassigned; (-)) [Compound 19.3, (−)-propargyl 4-chloro-alpha-(3-trifluoromethylphenoxy)benzeneacetate]

- half-life [1]: < 60 min
Compound: O=C(NCCOC(=O)C(Oc1cccc(C(F)(F)F)c1)c1ccc(Cl)cc1)c1cccs1 (single isomer, unassigned) [Compound 19.2]

Compound: O=C(NCCOC(=O)C(Oc1cccc(C(F)(F)F)c1)c1ccc(Cl)cc1)c1ccccc1 (single isomer, unassigned; (-)) [(−)Analog 36]
- Predose Glucose ([2]; 150 mg/kg group): 373.2 ± 15.5 mg/dL
- 6 hours Glucose ([2]; single oral dose 150 mg/kg): 281.1 ± 18.2 mg/dL
- time points with significantly reduced plasma glucose ([2]; single oral dose 150 mg/kg): 6 h

- half-life [1]: < 60 min
Compound: CC(OC(=O)OC1CCCCC1)OC(=O)C(Oc1cccc(C(F)(F)F)c1)c1ccc(Cl)cc1 (single isomer, unassigned; (-)) [Compound 19.27, (−)-1-(cyclohexyloxycarbonyloxy)ethyl 4-chloro-alpha-(3-trifluoromethylphenoxy)benzeneacetate]

- half-life [1]: < 60 min
Compound: O=C(OCc1cccnc1)C(Oc1cccc(C(F)(F)F)c1)c1ccc(Cl)cc1 (single isomer, unassigned) [Compound 19.18]

Compound: CC(=O)NCCOC(=O)C(Oc1cccc(C(F)(F)F)c1)c1ccc(Br)cc1 (single isomer, unassigned; (-)) [(−)Analog 29]
- Predose Glucose ([2]; 150 mg/kg group): 372.2 ± 17.1 mg/dL
- 6 hours Glucose ([2]; single oral dose 150 mg/kg): 333.5 ± 16.1 mg/dL
- time points with significantly reduced plasma glucose ([2]; single oral dose 150 mg/kg): 6 h
